According to patent US20040267001A1, “Genes encoding baeyer-villiger monooxygenases” (priority 2001, published 2004):

What was measured:
Experiment in all cases: chnB monooxygenase activity assay, NADPH oxidation at 340 nm, purified over-expressed enzyme
Assay type in all cases: biochemical
[1] = system: Acidovorax sp. CHX chnB monooxygenase; settings: 1.25 mM substrate, pH 7.5; ND = No Activity Detected
Description: (§1) Following amplification, the chnB gene fragments were cloned into pTrcHis-TOPO TA vectors with either an N-terminal tail or C-terminal tail, as provided by the vector sequence (N-terminal tail for Brevibacterium sp. HCU, Rhodococcus sp. phi1, Rhodococcus sp. phi2, and Arthrobacter sp. BP2 monooxygenases; C-terminal tail for Acinetobacter sp. SE19 and Acidovorax sp. CHX monooxygenases). These vectors were transformed into E. coli, with transformants grown in Luria-Bertani broth supplemented with ampicillin (100 ug/ml) and riboflavin (0.1 ug/ml) at 30° C. until the absorbance at 600 nm (A600) reached 0.5. When the A600 was reached, the temperature was shifted to 16° C.
(§2) The encoded monooxygenase sequences were expressed upon addition of IPTG to the culture media, 30 min after the temperature shift to 16° C. The cultures were grown further ovemight (14 hrs) and harvested by centrifugation in a cold centrifuge. The cells were treated with lysozyme (100 mg/ml) for 30 min on ice and sonicated. Following sonication, cell extracts were centrifuged and the supernatant was equilibrated with Ni-NTA resin (Qiagen, Valencia, Calif.) for 1 hr at 4° C. Protein bound resin was washed successively with increasing concentrations of imidazole buffer until the protein of interest was released from the resin. The purified protein was concentrated and the buffer exchanged to remove the imidazole. The protein concentration was adjusted to 1 ug/ml.
(§3) Compounds were selected on the basis of previous observations by van der Werf (J. Biochem. 347:693-701 (2000)) and Miyamoto et al. (Biochimica et Biophysica Acta 1251: 115-124 (1995)) and by searches for the ketone substructure.
(§4) All compounds were obtained from Sigma-Aldrich with only two exceptions. Levoglucosenone was obtained from Toronto Research Chemicals, Inc. and dimethyl-2-piperidone was prepared according to U.S. Pat. No. 6,077,955. For enzyme assays all compounds were dissolved to a concentration of 0.1 M in methanol, with the exceptions of norcamphor (dissolved in ethyl acetate), cyclododecanone, cycltridecanone and cyclopentadecanone (dissolved in propanol), and levoglucosenone (dissolved with acetone).
(§5) The monooxygenase activity of each over-expressed enzyme was assayed spectrophotometrically at 340 nm by monitoring the oxidation of NADPH. Assays were performed in individual quartz cuvettes, with a pathlength of 1 cm. […] An Ultrospec 4000 (Pharmacia Biotech, Cambridge, England) was used to read the absorbance of the samples over a two to ten minute time period and the SWIFT (Pharmacia Biotech) program was used to calculate the slope of the reduction in absorbance over time. For the Brevibactedum sp. […] Monooxygenase activity of each over-expressed enzyme is shown in Table 5, with respect to each ketone substrate. The specific activity values listed are given in umol/min/mg. The notation “ND” refers to “No Activity Detected”.

[2] = molecular target: T1, Acinetobacter sp. SE19 chnB monooxygenase (Acinetobacter sp., UniProt Q9F7E4); settings: 1.25 mM substrate, pH 7.5; ND = No Activity Detected
T1 construct: isolated full length BVMO genes from Brevibacterium sp; HCU, Acinetobacter SE19; C-terminal tail provided by the pTrcHis-TOPO vector (C); made in house; host or cells: E. coli
Description: as §1, §2, §3, §4, §5

[3] = system: Brevibacterium sp. HCU chnB1 monooxygenase; settings: 1.25 mM substrate, pH 7.5; ND = No Activity Detected
Description: as §1, §2, §3, §4, §5

[4] = system: Brevibacterium sp. HCU chnB2 monooxygenase; settings: 1.25 mM substrate, pH 7.5; rates multiplied by a factor of 3.25 to adjust for decrease in activity due to storage; ND = No Activity Detected
Description: as §1, §2, §3, §4, §5

[5] = system: Rhodococcus sp. phi1 chnB monooxygenase; settings: 1.25 mM substrate, pH 7.5; ND = No Activity Detected
Description: as §1, §2, §3, §4, §5

[6] = system: Rhodococcus sp. phi2 chnB monooxygenase; settings: 1.25 mM substrate, pH 7.5; ND = No Activity Detected
Description: as §1, §2, §3, §4, §5

[7] = system: Arthrobacter sp. BP2 chnB monooxygenase; settings: 1.25 mM substrate, pH 7.5; ND = No Activity Detected
Description: as §1, §2, §3, §4, §5

Row | SMILES | Specific Activity of Monooxygenase Enzymes Against Various Ketone Substrates, sp. CHX chnB [1] [µmol/min/mg] | Specific Activity of Monooxygenase Enzymes Against Various Ketone Substrates, sp. SE19 chnB [2] [µmol/min/mg] | Specific Activity of Monooxygenase Enzymes Against Various Ketone Substrates, sp. HCU chnB1 [3] [µmol/min/mg] | Specific Activity of Monooxygenase Enzymes Against Various Ketone Substrates, sp. HCU chnB2 [4] [µmol/min/mg] | Specific Activity of Monooxygenase Enzymes Against Various Ketone Substrates, sp. phi1 chnB [5] [µmol/min/mg] | Specific Activity of Monooxygenase Enzymes Against Various Ketone Substrates, sp. phi2 chnB [6] [µmol/min/mg] | Specific Activity of Monooxygenase Enzymes Against Various Ketone Substrates, sp. BP2 chnB [7] [µmol/min/mg]
1 | O=C1CCCCC1c1ccccc1 (stereo not shown) [2-phenyl-cyclohexanone] | 0.192 | 5.370 | 1.459 | 0.104 | 1.050 | 0.730 | 
2 | O=C1CCCCCCCCCC1 [Cycloundecanone] | 0.058 | 0.064 |  | 0.125 |  | 0.051 | 0.064
3 | O=C1CCCC1 [Cyclopentanone] | 0.621 | 3.034 |  | 1.331 | 1.370 | 2.451 | 1.491
4 | O=C1CCCCC1=O [1,2-cyclohexanedione] | 0.096 | 0.077 | 0.787 | 0.416 | 0.083 |  | 0.237
5 | O=C1CCCCCCCCCCCCCC1 [Cyclopenta-decanone] |  | 0.109 |  |  | 0.122 |  | 0.122
6 | CCCCCCCCCCCC(C)=O [2-tridecanone] | 0.096 |  |  | 0.187 | 0.160 | 1.690 | 
7 | O=C1CCCCCCCCCCCC1 [Cyclotridecanone] |  | 0.166 |  |  |  | 0.109 | 0.147
8 | O=C1CCC1 [Cyclobutanone] |  | 0.109 |  | 0.374 | 0.102 | 0.154 | 0.128
9 | OB(O)c1ccccc1 [Phenylboronic acid] |  | 0.102 | 1.606 |  |  | 0.109 | 0.192
10 | CCCCCCC(=O)CCCCCC [dihexyl ketone] |  |  |  | 0.270 | 0.160 |  | 
11 | O=C1CCCCCCC1 [Cyclooctanone] | 0.410 | 1.984 |  |  | 0.627 | 0.141 | 0.646
12 | O=C1CCCC(=O)C1 [1,3-cyclohexanedione] | 0.032 | 0.237 | 0.237 | 0.978 |  | 0.141 | 0.397
13 | O=C1C=C[C@H]2CO[C@@H]1O2 [Levoglucosenone] | 0.147 | 1.126 |  |  | 0.461 | 0.506 | 0.525
14 | C[S+](C)[O-] [dimethyl sulfoxide] | 0.358 | 0.819 | 0.230 |  | 0.518 | 0.544 | 0.422
15 | O=C1CCCCCCCCCCC1 [Cyclododecanone] | 0.051 | 0.122 |  | 0.229 |  | 0.122 | 0.198
16 | O=C1CCCCCCCCC1 [Cyclodecanone] | 0.160 | 0.320 |  |  | 0.077 | 0.205 | 0.166
